Data set [1] can be described thus: Distribution coefficient, log D of the compound at pH 7.4 by chromatographic method. The data set is classed as physicochemical.
Data set [2] addresses Bromodomain-containing protein 4 (Homo sapiens, UniProt O60885, Y390A).
For data set [3], the target named is Bromodomain testis-specific protein (Homo sapiens, UniProt Q58F21, Y309A). The data set is described as follows: Binding affinity to 6-His-FLAG-Tev-BRDT BD1 (1 to 397) (unknown origin) harboring BD2 Y309A mutant.
Data set [4] is described as follows: Solubility of the compound in phosphate buffered saline at pH 7.4 after 1 hr by CLND method. The data set is classed as physicochemical.
Data set [5] deals with Bromodomain-containing protein 2 (Homo sapiens, UniProt P25440, Y386A).
Bromodomain-containing protein 2 (Homo sapiens, UniProt P25440, Y386A), sequence (P25440 whole entry Y386A): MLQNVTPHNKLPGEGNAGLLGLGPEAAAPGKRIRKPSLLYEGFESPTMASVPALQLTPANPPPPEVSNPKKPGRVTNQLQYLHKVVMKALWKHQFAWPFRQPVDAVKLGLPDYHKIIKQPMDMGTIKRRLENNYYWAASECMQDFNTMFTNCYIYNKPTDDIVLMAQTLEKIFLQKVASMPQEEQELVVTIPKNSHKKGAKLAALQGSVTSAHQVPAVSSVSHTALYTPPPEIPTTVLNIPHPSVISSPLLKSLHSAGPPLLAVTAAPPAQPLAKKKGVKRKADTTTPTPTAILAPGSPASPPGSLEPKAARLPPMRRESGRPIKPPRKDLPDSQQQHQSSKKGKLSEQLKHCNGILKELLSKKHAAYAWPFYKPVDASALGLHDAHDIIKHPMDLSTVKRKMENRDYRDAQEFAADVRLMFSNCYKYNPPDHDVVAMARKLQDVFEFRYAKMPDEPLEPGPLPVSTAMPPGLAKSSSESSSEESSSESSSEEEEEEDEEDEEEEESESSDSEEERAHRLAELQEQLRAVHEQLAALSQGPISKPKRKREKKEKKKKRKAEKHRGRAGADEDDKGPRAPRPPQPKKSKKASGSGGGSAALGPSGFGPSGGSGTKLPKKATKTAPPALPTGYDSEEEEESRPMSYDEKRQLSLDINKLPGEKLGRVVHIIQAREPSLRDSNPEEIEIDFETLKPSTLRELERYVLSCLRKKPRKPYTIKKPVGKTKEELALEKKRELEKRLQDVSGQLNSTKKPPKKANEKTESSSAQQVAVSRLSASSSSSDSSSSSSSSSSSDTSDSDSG
For data set [6], the target named is Bromodomain-containing protein 2 (Homo sapiens, UniProt P25440, Y113A).
Bromodomain-containing protein 2 (Homo sapiens, UniProt P25440, Y113A), sequence (P25440 whole entry Y113A): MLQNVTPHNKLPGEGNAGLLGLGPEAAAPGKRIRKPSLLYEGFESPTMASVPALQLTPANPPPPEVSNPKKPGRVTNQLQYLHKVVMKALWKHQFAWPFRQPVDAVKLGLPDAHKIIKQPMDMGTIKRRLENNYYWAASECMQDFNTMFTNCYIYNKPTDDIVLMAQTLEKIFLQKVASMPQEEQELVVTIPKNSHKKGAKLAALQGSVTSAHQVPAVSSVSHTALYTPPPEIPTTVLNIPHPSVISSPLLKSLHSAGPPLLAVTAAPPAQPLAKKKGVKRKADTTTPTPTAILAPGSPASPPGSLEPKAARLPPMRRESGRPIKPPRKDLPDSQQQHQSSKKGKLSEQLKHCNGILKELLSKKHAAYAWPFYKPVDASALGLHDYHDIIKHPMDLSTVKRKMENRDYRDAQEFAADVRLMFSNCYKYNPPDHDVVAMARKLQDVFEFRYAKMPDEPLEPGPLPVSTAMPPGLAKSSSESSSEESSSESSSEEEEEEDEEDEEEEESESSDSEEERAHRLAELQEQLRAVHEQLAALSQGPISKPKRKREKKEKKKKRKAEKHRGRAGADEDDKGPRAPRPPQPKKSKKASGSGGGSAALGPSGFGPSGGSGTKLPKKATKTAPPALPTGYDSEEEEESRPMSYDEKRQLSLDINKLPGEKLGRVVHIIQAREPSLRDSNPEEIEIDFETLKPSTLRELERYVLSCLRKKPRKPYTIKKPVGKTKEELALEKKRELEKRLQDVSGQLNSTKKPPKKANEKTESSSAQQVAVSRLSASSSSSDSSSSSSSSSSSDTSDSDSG
Data set [7] is described as follows: Lipophilicity, log P of the compound. The format is physicochemical. The conditions noted are these: octanol/water.
For data set [8], the target named is Bromodomain-containing protein 3 (Homo sapiens, UniProt Q15059, Y37A). The data set is described as follows: Binding affinity to BRD3 6-His-Thr BRD3 (1 to 435) BD2 (unknown origin) harboring BD1 Y37A mutant.
Bromodomain-containing protein 3 (Homo sapiens, UniProt Q15059, Y37A), sequence (Q15059 whole entry, looked up, stated change not applied): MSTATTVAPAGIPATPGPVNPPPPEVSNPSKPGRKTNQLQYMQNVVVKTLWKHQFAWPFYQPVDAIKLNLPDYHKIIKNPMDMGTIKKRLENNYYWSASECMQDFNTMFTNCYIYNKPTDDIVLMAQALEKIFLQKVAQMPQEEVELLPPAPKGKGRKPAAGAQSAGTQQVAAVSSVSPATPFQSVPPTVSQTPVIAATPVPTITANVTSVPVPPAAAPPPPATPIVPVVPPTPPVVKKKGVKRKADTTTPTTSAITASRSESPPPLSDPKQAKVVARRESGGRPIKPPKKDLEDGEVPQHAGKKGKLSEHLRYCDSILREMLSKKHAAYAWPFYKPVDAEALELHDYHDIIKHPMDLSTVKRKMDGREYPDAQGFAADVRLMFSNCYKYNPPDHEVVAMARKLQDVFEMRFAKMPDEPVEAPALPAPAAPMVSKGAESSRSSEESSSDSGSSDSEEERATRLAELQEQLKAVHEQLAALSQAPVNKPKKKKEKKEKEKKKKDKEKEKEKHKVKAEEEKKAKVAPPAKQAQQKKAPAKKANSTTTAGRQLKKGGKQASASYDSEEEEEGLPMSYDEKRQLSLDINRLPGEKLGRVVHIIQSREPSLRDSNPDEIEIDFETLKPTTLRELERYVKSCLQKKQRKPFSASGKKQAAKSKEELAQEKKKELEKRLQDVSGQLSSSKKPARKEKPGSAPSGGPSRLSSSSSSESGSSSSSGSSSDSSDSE
The target in data set [9] is Bromodomain-containing protein 3 (Homo sapiens, UniProt Q15059, Y348A). Put plainly: Binding affinity to 6-His-Thr BRD3 (1 to 435) BD1 (unknown origin) harboring BD2 Y348A mutant.
Bromodomain-containing protein 3 (Homo sapiens, UniProt Q15059, Y348A), sequence (Q15059 2-726 Y348A limits assumed): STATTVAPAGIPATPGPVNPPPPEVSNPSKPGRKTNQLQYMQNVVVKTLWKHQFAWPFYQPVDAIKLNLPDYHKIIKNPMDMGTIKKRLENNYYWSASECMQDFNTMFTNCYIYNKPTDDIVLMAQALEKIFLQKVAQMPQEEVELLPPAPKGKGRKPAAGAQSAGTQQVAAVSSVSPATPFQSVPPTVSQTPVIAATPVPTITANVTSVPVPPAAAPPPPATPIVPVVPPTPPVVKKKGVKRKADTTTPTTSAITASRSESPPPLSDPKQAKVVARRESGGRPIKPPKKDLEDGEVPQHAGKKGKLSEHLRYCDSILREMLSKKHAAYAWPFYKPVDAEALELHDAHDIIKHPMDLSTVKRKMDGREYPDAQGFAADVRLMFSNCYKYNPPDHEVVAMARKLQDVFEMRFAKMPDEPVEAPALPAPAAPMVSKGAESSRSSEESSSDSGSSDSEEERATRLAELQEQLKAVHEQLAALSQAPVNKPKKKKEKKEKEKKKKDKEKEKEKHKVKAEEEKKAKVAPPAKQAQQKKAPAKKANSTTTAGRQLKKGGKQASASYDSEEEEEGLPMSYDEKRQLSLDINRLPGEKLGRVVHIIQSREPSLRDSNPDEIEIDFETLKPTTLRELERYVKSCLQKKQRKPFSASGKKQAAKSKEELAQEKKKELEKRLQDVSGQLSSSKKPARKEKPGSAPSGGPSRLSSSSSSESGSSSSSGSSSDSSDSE
Data set [10] in a line: Permeability across phosphatidyl choline membrane at pH 7.4 after 3 hrs by HPLC with UV detection method. The data set is classed as ADME. The conditions noted are these: not told, read-out: permeability.
In data set [11] the target is Bromodomain testis-specific protein (Homo sapiens, UniProt Q58F21, Y66A). The data set is described as follows: Binding affinity to 6-His-FLAG-Tev-BRDT BD2 (1 to 397) (unknown origin) harboring BD1 Y66A mutant.
Data set [12] has as its target Bromodomain-containing protein 4 (Homo sapiens, UniProt O60885, Y97A).

In brackets after ≈: the same amount, converted by molar mass. Where only a bound is given, the exact number is not on record here.

Usually chromatographic logD stands for lipophilicity estimated from chromatographic retention. In general, IC50 refers to the concentration needed to halve the response being measured. Read a low IC50 as greater potency. On to `CC(=O)N1CCc2cc(-c3cnc(NC4CCNCC4)c4[nH]c(=O)c(C)cc34)ccc21`, for which the chromatographic logD in [1] is 1.4. In addition, in data set [2], the IC50 is 1 µM. On to `Cc1cc2c(-c3cncc(COC(N)=O)c3)cnc(NC3CCNCC3)c2[nH]c1=O`, for which, in data set [1], the chromatographic logD is 0.3. The compound `COCCNc1cccc2cc(C)c(=O)[nH]c12` gave an IC50 in [2] of over 50.1 µM. `Cc1cncc(-c2cnc(NC3CCNCC3)c3[nH]c(=O)c(C)cc23)c1C`: the chromatographic logD in [1] came to 1.4. In data set [2], this compound showed a half-maximal inhibitory concentration (IC50) of 7.94 µM. `Cc1cc2ccccc2[nH]c1=O` showed an IC50 in [2] of 39.8 µM. In data set [1], `Cc1cc2c(-c3cncnc3)cnc(NC3CCNCC3)c2[nH]c1=O` returned a chromatographic logD of 0.3. Further, in data set [2], the IC50 is 15.8 µM.

In the case of `Cc1cc2ccnc(NC3CCN(C4CC4)CC3)c2[nH]c1=O`, in [1], the chromatographic logD came out at 2.8. As to `Cc1cc2c(-c3ccncc3)cnc(NC3CCNCC3)c2[nH]c1=O`, the chromatographic logD in data set [1] worked out at 1. In [2], this compound showed an IC50 of 3.16 µM. Take `Cc1cc2c(-c3ccccc3)cnc(NC3CCNCC3)c2[nH]c1=O`: the chromatographic logD in data set [1] is 2.5. Further, the 50% inhibitory concentration (IC50) in data set [2] is 0.794 µM. In the case of `Cc1cc2c(-c3cncc(NS(C)(=O)=O)c3)cnc(NC3CCNCC3)c2[nH]c1=O`, the chromatographic logD in [1] was found to be 0.2. Half-maximal inhibition in data set [2] (IC50) required 0.794 µM. In data set [2], `Cc1cc2cccc(NCCCN(C)C)c2[nH]c1=O` had an IC50 of 10 µM. `Cc1cc2ccnc(N[C@@H]3CCCNC3)c2[nH]c1=O` had an IC50 in data set [2] of 15.8 µM. In data set [1], `Cc1cc2c(-c3cncc(N)c3)cnc(NC3CCNCC3)c2[nH]c1=O` registered a chromatographic logD of 0. In addition, in [2], inhibition was half-maximal at 2 µM (IC50).

In [1], `Cc1cc2ccnc(NC3CCNCC3)c2[nH]c1=O` returned a chromatographic logD of 0.6. Same read-out and setting: for `Cc1cc2ccnc(NC3CCN(C)CC3)c2[nH]c1=O` the value was 0.5. In turn, `Cc1cc2c(-c3cc[nH]n3)cnc(NC3CCNCC3)c2[nH]c1=O` displayed a chromatographic logD in data set [1] of 0.4. Besides, the IC50 in [2] was 1.26 µM. For the compound `Cc1cc2c(-c3ccccn3)cnc(NC3CCNCC3)c2[nH]c1=O`, the chromatographic logD in data set [1] turned out to be 1. In data set [2], this compound gave an IC50 of 5.01 µM. In data set [2], `Cc1cc2cccc(NCc3ncc[nH]3)c2[nH]c1=O` showed an IC50 of 50.1 µM. With `Cc1cc2c(-c3cncc(C(N)=O)c3)cnc(NC3CCNCC3)c2[nH]c1=O`, in data set [1], the chromatographic logD was -0.2. In data set [2], this compound had an IC50 of 3.98 µM.

`Cc1cc2c(-c3cccc(O)c3)cnc(NC3CCNCC3)c2[nH]c1=O`: the chromatographic logD in [1] came out at 1.3. Besides, in [2], the IC50 is 0.631 µM. The corresponding values for `Cc1cc2c(-c3cn[nH]c3)cnc(NC3CCNCC3)c2[nH]c1=O` are 0 and 0.794 µM. In turn, `CCCNc1cccc2cc(C)c(=O)[nH]c12` came in with an IC50 in data set [2] of over 50.1 µM. The compound `Cc1cc2ccnc(N[C@@H]3C[C@H]4CC[C@@H](C3)N4C)c2[nH]c1=O` gave a chromatographic logD in data set [1] of 1. Turning to `Cc1cc2c(-c3cccnc3)cnc(NC3CCNCC3)c2[nH]c1=O`, in [1], the chromatographic logD worked out at 0.8. This compound also showed an IC50 in [2] of 2 µM. `Cc1cc2cccc(NCCCO)c2[nH]c1=O` gave an IC50 in data set [2] of 5.01 µM. For `Cc1ccc(-c2cnc(NC3CCNCC3)c3[nH]c(=O)c(C)cc23)cn1`, the chromatographic logD in [1] came out at 1.1. Also, the IC50 in data set [2] was 1 µM. Regarding `Cc1cc2ccnc(NCC(C)(C)CN(C)C)c2[nH]c1=O`, in data set [2], the IC50 was 158 µM. With `Cc1cc2ccnc(NCCC3CCNCC3)c2[nH]c1=O`, in [2], inhibition was half-maximal at 12.6 µM (IC50). On to `Cc1cc2c(-c3cccc4[nH]ncc34)cnc(NC3CCNCC3)c2[nH]c1=O`, for which the chromatographic logD in data set [1] came out at 1.2. The same compound had an IC50 in data set [2] of 0.126 µM.

Broadly, the kinetic solubility is the concentration staying in solution when a stock, usually in DMSO, is diluted into the medium. One may read the logP as a log measure of how a compound divides between an organic and an aqueous phase. Higher therefore signals higher lipophilicity. For the compound `Cc1cncc(-c2cnc(NC3CCNCC3)c3[nH]c(=O)c(C)cc23)c1`, the half-inhibitory concentration (IC50) is 7.94 µM in data set [3]; 6.31 µM in data set [5]; 20 µM in data set [6]; 20 µM in [8]; 7.94 µM in data set [9]; 31.6 µM in data set [11]. In data set [4], the solubility (kinetic) at 1 h was at least 207 µM. In data set [7], this compound gave a logP of 2.4. In data set [1], this compound had a chromatographic logD of 1.2. The Papp at 3 h in data set [10] is under 0.3 ×10⁻⁶ cm/s. The compound `COCCCN1CCC(Nc2nccc3cc(C)c(=O)[nH]c23)CC1` returned a chromatographic logD in data set [1] of 1.4. In data set [2], this compound gave an IC50 of 3.98 µM.

In the case of `Cc1ncccc1-c1cnc(NC2CCNCC2)c2[nH]c(=O)c(C)cc12`, the chromatographic logD in data set [1] turned out to be 0.8. In [2], it took 6.31 µM to reach half-maximal inhibition (IC50). `Cc1cc2cccc(NCCC(=O)O)c2[nH]c1=O`: in [2], the IC50 is over 50.1 µM. `Cc1cc2cccc(NCCN(C)C)c2[nH]c1=O` had an IC50 in data set [2] of 25.1 µM.

For `Cc1ccncc1-c1cnc(NC2CCNCC2)c2[nH]c(=O)c(C)cc12`, the chromatographic logD in data set [1] stood at 0.9. In [2], this compound gave an IC50 of 3.16 µM. Turning to `Cc1cc2ccnc(N[C@H]3C[C@H]4CC[C@@H](C3)N4C)c2[nH]c1=O`, the chromatographic logD in data set [1] is 1.2. For `COc1ccc(-c2cnc(NC3CCNCC3)c3[nH]c(=O)c(C)cc23)cn1`, the chromatographic logD in [1] is 1.6. This compound also showed an IC50 in data set [2] of 1.26 µM. In the case of `Cc1cc2cccc(NCCO)c2[nH]c1=O`, the IC50 in data set [2] was 39.8 µM.

`Cc1cc2c(-c3cncc(Cl)c3)cnc(NC3CCNCC3)c2[nH]c1=O` showed a chromatographic logD in data set [1] of 1.7. The same compound had an IC50 in data set [2] of 6.31 µM. As to `Cc1cc2ccnc(NCCC3CCCNC3)c2[nH]c1=O` (configuration not stated), half-maximal inhibition in data set [2] (IC50) required 25.1 µM.

In [1], `COCCN1CCC(Nc2nccc3cc(C)c(=O)[nH]c23)CC1` gave a chromatographic logD of 1.4.

As to `COc1cncc(-c2cnc(NC3CCNCC3)c3[nH]c(=O)c(C)cc23)c1`, the half-inhibitory concentration (IC50) was 6.31 µM in data set [3]; 3.98 µM in data set [5]; 20 µM in data set [6]; 15.8 µM in [12]; 20 µM in data set [8]; 6.31 µM in data set [9]. In addition, the IC50 was 25.1 µM in data set [11] and 1.26 µM in data set [2]. The compound further returned a kinetic solubility at 1 h in data set [4] of 250 µM (≈ 91.4 µg/mL). This compound also registered a logP in data set [7] of 2.7. In [1], this compound registered a chromatographic logD of 1.1. In addition, the Papp at 3 h in [10] is under 0.3 ×10⁻⁶ cm/s.

Values taken from ChEMBL document CHEMBL3585343, “Fragment-Based Discovery of Low-Micromolar ATAD2 Bromodomain Inhibitors” (J Med Chem, 2015).
